Measured values taken from ChEMBL document CHEMBL3217532, “New analyses of MIC90 data to aid antibacterial drug discovery” (2011).
Values after ≈ are worked out from the molar mass of the structure shown.

Experiments:
Assay type in all cases: functional
Pseudomonas aeruginosa [1] = test: Antimicrobial activity against Pseudomonas aeruginosa 1951-00
Pseudomonas aeruginosa [2] = test: Antimicrobial activity against Pseudomonas aeruginosa 1752-00
Pseudomonas aeruginosa [3] = test: Antimicrobial activity against Pseudomonas aeruginosa 1753-00
Pseudomonas aeruginosa [4] = test: Antimicrobial activity against Pseudomonas aeruginosa 1957-00
Pseudomonas aeruginosa [5] = test: Antimicrobial activity against Pseudomonas aeruginosa 1569-05
Pseudomonas aeruginosa [6] = test: Antimicrobial activity against Pseudomonas aeruginosa 1570-05
Pseudomonas aeruginosa [7] = test: Antimicrobial activity against Pseudomonas aeruginosa 1613-09
Pseudomonas aeruginosa [8] = test: Antimicrobial activity against Pseudomonas aeruginosa 1954-00
Pseudomonas aeruginosa [9] = test: Antimicrobial activity against Pseudomonas aeruginosa PA-4624
Pseudomonas aeruginosa [10] = test: Antimicrobial activity against Pseudomonas aeruginosa 1565-05
Pseudomonas aeruginosa [11] = test: Antimicrobial activity against Pseudomonas aeruginosa 1566-05
Pseudomonas aeruginosa [12] = test: Antimicrobial activity against Pseudomonas aeruginosa 1567-05
Pseudomonas aeruginosa [13] = test: Antimicrobial activity against Pseudomonas aeruginosa 1568-05
Pseudomonas aeruginosa [14] = test: Antimicrobial activity against Pseudomonas aeruginosa 1767-00
Pseudomonas aeruginosa [15] = test: Antimicrobial activity against Pseudomonas aeruginosa 1768-00
Pseudomonas aeruginosa [16] = test: Antimicrobial activity against Pseudomonas aeruginosa 1956-00
Pseudomonas aeruginosa [17] = test: Antimicrobial activity against Pseudomonas aeruginosa PA-75
Pseudomonas aeruginosa [18] = test: Antimicrobial activity against Pseudomonas aeruginosa 1955-00
Pseudomonas aeruginosa [19] = test: Antimicrobial activity against Pseudomonas aeruginosa 1561-05
Pseudomonas aeruginosa [20] = test: Antimicrobial activity against Pseudomonas aeruginosa 1563-00
Pseudomonas aeruginosa [21] = test: Antimicrobial activity against Pseudomonas aeruginosa 1564-05
Pseudomonas aeruginosa [22] = test: Antimicrobial activity against Pseudomonas aeruginosa 1615-09
Pseudomonas aeruginosa [23] = test: Antimicrobial activity against Pseudomonas aeruginosa 1761-00
Pseudomonas aeruginosa [24] = test: Antimicrobial activity against Pseudomonas aeruginosa 1764-00
Pseudomonas aeruginosa [25] = test: Antimicrobial activity against Pseudomonas aeruginosa 1765-00
Pseudomonas aeruginosa [26] = test: Antimicrobial activity against Pseudomonas aeruginosa 1766-00
Pseudomonas aeruginosa [27] = test: Antimicrobial activity against Pseudomonas aeruginosa 1952-00
Pseudomonas aeruginosa [28] = test: Antimicrobial activity against Pseudomonas aeruginosa 1953-00
Pseudomonas aeruginosa [29] = test: Antimicrobial activity against Pseudomonas aeruginosa 1562-05
Pseudomonas aeruginosa [30] = test: Antimicrobial activity against Pseudomonas aeruginosa 1611-09
Pseudomonas aeruginosa [31] = test: Antimicrobial activity against Pseudomonas aeruginosa 1614-09
Pseudomonas aeruginosa [32] = test: Antimicrobial activity against Pseudomonas aeruginosa 1619-08
Pseudomonas aeruginosa [33] = test: Antimicrobial activity against Pseudomonas aeruginosa 1760-00
Pseudomonas aeruginosa [34] = test: Antimicrobial activity against Pseudomonas aeruginosa PA-1757
Pseudomonas aeruginosa [35] = test: Antimicrobial activity against Pseudomonas aeruginosa 1527-08
Pseudomonas aeruginosa [36] = test: Antimicrobial activity against Pseudomonas aeruginosa PA-4991
Pseudomonas aeruginosa [37] = test: Antimicrobial activity against Pseudomonas aeruginosa PA-4999
Pseudomonas aeruginosa [38] = test: Antimicrobial activity against Pseudomonas aeruginosa 1612-09
Pseudomonas aeruginosa [39] = test: Antimicrobial activity against Pseudomonas aeruginosa PA-4995
Pseudomonas aeruginosa [40] = test: Antimicrobial activity against Pseudomonas aeruginosa 1513-08
Pseudomonas aeruginosa [41] = test: Antimicrobial activity against Pseudomonas aeruginosa 1515-08
Pseudomonas aeruginosa [42] = test: Antimicrobial activity against Pseudomonas aeruginosa PA-4990
Pseudomonas aeruginosa [43] = test: Antimicrobial activity against Pseudomonas aeruginosa PA-4997
Pseudomonas aeruginosa [44] = test: Antimicrobial activity against Pseudomonas aeruginosa 1523-08
Pseudomonas aeruginosa [45] = test: Antimicrobial activity against Pseudomonas aeruginosa PA-4993
Pseudomonas aeruginosa [46] = test: Antimicrobial activity against Pseudomonas aeruginosa 1509-08
Pseudomonas aeruginosa [47] = test: Antimicrobial activity against Pseudomonas aeruginosa 1510-08
Pseudomonas aeruginosa [48] = test: Antimicrobial activity against Pseudomonas aeruginosa 1512-08
Pseudomonas aeruginosa [49] = test: Antimicrobial activity against Pseudomonas aeruginosa 1514-08
Pseudomonas aeruginosa [50] = test: Antimicrobial activity against Pseudomonas aeruginosa 1521-08
Pseudomonas aeruginosa [51] = test: Antimicrobial activity against Pseudomonas aeruginosa 1526-08

Work on `CC1(C)[C@H](NC(=O)/C(=N\OCc2cc(=O)c(O)cn2O)c2csc(N)n2)C(=O)N1OS(=O)(=O)O` yielded an MIC90 (Pseudomonas aeruginosa [1]) of 1 mg/L (≈ 1.93 µM), an MIC90 (Pseudomonas aeruginosa [2]) of 1 mg/L (≈ 1.93 µM) and an MIC90 (Pseudomonas aeruginosa [3]) of 4 mg/L (≈ 7.71 µM). For the same molecule, the MIC90 (Pseudomonas aeruginosa [4]) was 0.25 mg/L (≈ 0.482 µM), the MIC90 (Pseudomonas aeruginosa [5]) was 1 mg/L (≈ 1.93 µM) and the MIC90 (Pseudomonas aeruginosa [6]) was 0.5 mg/L (≈ 0.964 µM). It also gave an MIC90 (Pseudomonas aeruginosa [7]) of 0.5 mg/L (≈ 0.964 µM), an MIC90 (Pseudomonas aeruginosa [8]) of 0.25 mg/L (≈ 0.482 µM) and an MIC90 (Pseudomonas aeruginosa [9]) of 1 mg/L (≈ 1.93 µM). For the same molecule, the MIC90 (Pseudomonas aeruginosa [10]) was 0.5 mg/L (≈ 0.964 µM), the MIC90 (Pseudomonas aeruginosa [11]) was 1 mg/L (≈ 1.93 µM) and the MIC90 (Pseudomonas aeruginosa [12]) was 0.5 mg/L (≈ 0.964 µM). It also gave an MIC90 (Pseudomonas aeruginosa [13]) of 0.5 mg/L (≈ 0.964 µM), an MIC90 (Pseudomonas aeruginosa [14]) of 0.5 mg/L (≈ 0.964 µM) and an MIC90 (Pseudomonas aeruginosa [15]) of 0.5 mg/L (≈ 0.964 µM). For the same molecule, the MIC90 (Pseudomonas aeruginosa [16]) was 0.5 mg/L (≈ 0.964 µM), the MIC90 (Pseudomonas aeruginosa [17]) was 0.5 mg/L (≈ 0.964 µM) and the MIC90 (Pseudomonas aeruginosa [18]) was 0.5 mg/L (≈ 0.964 µM). It also gave an MIC90 (Pseudomonas aeruginosa [19]) of 2 mg/L (≈ 3.86 µM), an MIC90 (Pseudomonas aeruginosa [20]) of 0.5 mg/L (≈ 0.964 µM) and an MIC90 (Pseudomonas aeruginosa [21]) of 0.5 mg/L (≈ 0.964 µM). The MIC90 (Pseudomonas aeruginosa [22]) was 1 mg/L (≈ 1.93 µM), the MIC90 (Pseudomonas aeruginosa [23]) was 4 mg/L (≈ 7.71 µM) and the MIC90 (Pseudomonas aeruginosa [24]) was 0.5 mg/L (≈ 0.964 µM). For the same molecule, the MIC90 (Pseudomonas aeruginosa [25]) was 4 mg/L (≈ 7.71 µM), the MIC90 (Pseudomonas aeruginosa [26]) was 0.5 mg/L (≈ 0.964 µM) and the MIC90 (Pseudomonas aeruginosa [27]) was 1 mg/L (≈ 1.93 µM). It also gave an MIC90 (Pseudomonas aeruginosa [28]) of 1 mg/L (≈ 1.93 µM), an MIC90 (Pseudomonas aeruginosa [29]) of 1 mg/L (≈ 1.93 µM) and an MIC90 (Pseudomonas aeruginosa [30]) of 0.125 mg/L (≈ 0.241 µM). For the same molecule, the MIC90 (Pseudomonas aeruginosa [31]) was 0.5 mg/L (≈ 0.964 µM), the MIC90 (Pseudomonas aeruginosa [32]) was 0.06 mg/L (≈ 0.116 µM) and the MIC90 (Pseudomonas aeruginosa [33]) was 1 mg/L (≈ 1.93 µM). The MIC90 (Pseudomonas aeruginosa [34]) was 8 mg/L (≈ 15.4 µM), the MIC90 (Pseudomonas aeruginosa [35]) was 1 mg/L (≈ 1.93 µM) and the MIC90 (Pseudomonas aeruginosa [36]) was 1 mg/L (≈ 1.93 µM). The MIC90 (Pseudomonas aeruginosa [37]) was 1 mg/L (≈ 1.93 µM), the MIC90 (Pseudomonas aeruginosa [38]) was 16 mg/L (≈ 30.9 µM) and the MIC90 (Pseudomonas aeruginosa [39]) was 0.5 mg/L (≈ 0.964 µM). For the same molecule, the MIC90 (Pseudomonas aeruginosa [40]) was 1 mg/L (≈ 1.93 µM), the MIC90 (Pseudomonas aeruginosa [41]) was 1 mg/L (≈ 1.93 µM) and the MIC90 (Pseudomonas aeruginosa [42]) was 0.5 mg/L (≈ 0.964 µM). It also gave an MIC90 (Pseudomonas aeruginosa [43]) of 1 mg/L (≈ 1.93 µM), an MIC90 (Pseudomonas aeruginosa [44]) of 1 mg/L (≈ 1.93 µM) and an MIC90 (Pseudomonas aeruginosa [45]) of 0.5 mg/L (≈ 0.964 µM). It also gave an MIC90 (Pseudomonas aeruginosa [46]) of 2 mg/L (≈ 3.86 µM), an MIC90 (Pseudomonas aeruginosa [47]) of 8 mg/L (≈ 15.4 µM) and an MIC90 (Pseudomonas aeruginosa [48]) of 0.5 mg/L (≈ 0.964 µM). For the same molecule, the MIC90 (Pseudomonas aeruginosa [49]) was 2 mg/L (≈ 3.86 µM), the MIC90 (Pseudomonas aeruginosa [50]) was 2 mg/L (≈ 3.86 µM) and the MIC90 (Pseudomonas aeruginosa [51]) was 0.5 mg/L (≈ 0.964 µM).
With `CC(C)(O/N=C(\C(=O)N[C@H]1CN(C(=O)NS(=O)(=O)n2nc(-c3cc(=O)c(O)c[nH]3)n(C[C@@H](O)CO)c2=O)C1=O)c1csc(N)n1)C(=O)O` the MIC90 (Pseudomonas aeruginosa [1]) was 0.25 mg/L (≈ 0.35 µM), the MIC90 (Pseudomonas aeruginosa [2]) was 0.5 mg/L (≈ 0.7 µM) and the MIC90 (Pseudomonas aeruginosa [3]) was 0.25 mg/L (≈ 0.35 µM). It also gave an MIC90 (Pseudomonas aeruginosa [4]) of 0.06 mg/L (≈ 0.084 µM), an MIC90 (Pseudomonas aeruginosa [5]) of 0.25 mg/L (≈ 0.35 µM) and an MIC90 (Pseudomonas aeruginosa [6]) of 0.125 mg/L (≈ 0.175 µM). The MIC90 (Pseudomonas aeruginosa [7]) was 0.5 mg/L (≈ 0.7 µM), the MIC90 (Pseudomonas aeruginosa [8]) was 0.06 mg/L (≈ 0.084 µM) and the MIC90 (Pseudomonas aeruginosa [9]) was 0.25 mg/L (≈ 0.35 µM). It also gave an MIC90 (Pseudomonas aeruginosa [10]) of 0.125 mg/L (≈ 0.175 µM), an MIC90 (Pseudomonas aeruginosa [11]) of 0.125 mg/L (≈ 0.175 µM) and an MIC90 (Pseudomonas aeruginosa [12]) of 0.125 mg/L (≈ 0.175 µM). It also gave an MIC90 (Pseudomonas aeruginosa [13]) of 0.25 mg/L (≈ 0.35 µM), an MIC90 (Pseudomonas aeruginosa [14]) of 0.125 mg/L (≈ 0.175 µM) and an MIC90 (Pseudomonas aeruginosa [15]) of 0.06 mg/L (≈ 0.084 µM). It also gave an MIC90 (Pseudomonas aeruginosa [16]) of 0.06 mg/L (≈ 0.084 µM), an MIC90 (Pseudomonas aeruginosa [17]) of 0.25 mg/L (≈ 0.35 µM) and an MIC90 (Pseudomonas aeruginosa [18]) of 0.125 mg/L (≈ 0.175 µM). The MIC90 (Pseudomonas aeruginosa [19]) was 1 mg/L (≈ 1.4 µM), the MIC90 (Pseudomonas aeruginosa [20]) was 0.125 mg/L (≈ 0.175 µM) and the MIC90 (Pseudomonas aeruginosa [21]) was 0.125 mg/L (≈ 0.175 µM). The MIC90 (Pseudomonas aeruginosa [22]) was 0.25 mg/L (≈ 0.35 µM), the MIC90 (Pseudomonas aeruginosa [23]) was 1 mg/L (≈ 1.4 µM) and the MIC90 (Pseudomonas aeruginosa [24]) was 0.125 mg/L (≈ 0.175 µM). The MIC90 (Pseudomonas aeruginosa [25]) was 0.5 mg/L (≈ 0.7 µM), the MIC90 (Pseudomonas aeruginosa [26]) was 16 mg/L (≈ 22.4 µM) and the MIC90 (Pseudomonas aeruginosa [27]) was 0.125 mg/L (≈ 0.175 µM). For the same molecule, the MIC90 (Pseudomonas aeruginosa [28]) was 0.5 mg/L (≈ 0.7 µM), the MIC90 (Pseudomonas aeruginosa [29]) was 0.125 mg/L (≈ 0.175 µM) and the MIC90 (Pseudomonas aeruginosa [30]) was 0.125 mg/L (≈ 0.175 µM). The MIC90 (Pseudomonas aeruginosa [31]) was 0.25 mg/L (≈ 0.35 µM), the MIC90 (Pseudomonas aeruginosa [32]) was 0.06 mg/L (≈ 0.084 µM) and the MIC90 (Pseudomonas aeruginosa [33]) was 0.25 mg/L (≈ 0.35 µM). The MIC90 (Pseudomonas aeruginosa [34]) was 8 mg/L (≈ 11.2 µM), the MIC90 (Pseudomonas aeruginosa [35]) was 0.25 mg/L (≈ 0.35 µM) and the MIC90 (Pseudomonas aeruginosa [36]) was 0.25 mg/L (≈ 0.35 µM). It also gave an MIC90 (Pseudomonas aeruginosa [37]) of 0.25 mg/L (≈ 0.35 µM), an MIC90 (Pseudomonas aeruginosa [38]) of 0.5 mg/L (≈ 0.7 µM) and an MIC90 (Pseudomonas aeruginosa [39]) of 0.125 mg/L (≈ 0.175 µM). The MIC90 (Pseudomonas aeruginosa [40]) was 0.5 mg/L (≈ 0.7 µM), the MIC90 (Pseudomonas aeruginosa [41]) was 0.25 mg/L (≈ 0.35 µM) and the MIC90 (Pseudomonas aeruginosa [42]) was 0.125 mg/L (≈ 0.175 µM). It also gave an MIC90 (Pseudomonas aeruginosa [43]) of 0.25 mg/L (≈ 0.35 µM), an MIC90 (Pseudomonas aeruginosa [44]) of 0.25 mg/L (≈ 0.35 µM) and an MIC90 (Pseudomonas aeruginosa [45]) of 0.125 mg/L (≈ 0.175 µM). For the same molecule, the MIC90 (Pseudomonas aeruginosa [46]) was 2 mg/L (≈ 2.8 µM), the MIC90 (Pseudomonas aeruginosa [47]) was 8 mg/L (≈ 11.2 µM) and the MIC90 (Pseudomonas aeruginosa [48]) was 0.25 mg/L (≈ 0.35 µM). It also gave an MIC90 (Pseudomonas aeruginosa [49]) of 0.5 mg/L (≈ 0.7 µM), an MIC90 (Pseudomonas aeruginosa [50]) of 0.5 mg/L (≈ 0.7 µM) and an MIC90 (Pseudomonas aeruginosa [51]) of 0.5 mg/L (≈ 0.7 µM).
